# Laboratory results taken from patent US8124360B2, “Use of a T1R2 nucleic acid sequence to identify tastants” (Givaudan S.A., priority 2006, dated 2012).
# Residues, ends and D or L forms follow the SMILES beside them.
# Legend:
# T1R2/T1R3 dimer = target: T1, T1R2/T1R3 dimer (Homo sapiens, UniProt Q7RTX0+Q8TE23); experiment: Fluo-4 calcium assay, HEK293T/G16gust44 cells transiently transfected with T1R2 and T1R3; format: cell-based
# T1 construct: expressed in transfected cells; host or cells: HEK293T cells stably expressing G16gust44
# T1 sequence (Q8TE23 20-839): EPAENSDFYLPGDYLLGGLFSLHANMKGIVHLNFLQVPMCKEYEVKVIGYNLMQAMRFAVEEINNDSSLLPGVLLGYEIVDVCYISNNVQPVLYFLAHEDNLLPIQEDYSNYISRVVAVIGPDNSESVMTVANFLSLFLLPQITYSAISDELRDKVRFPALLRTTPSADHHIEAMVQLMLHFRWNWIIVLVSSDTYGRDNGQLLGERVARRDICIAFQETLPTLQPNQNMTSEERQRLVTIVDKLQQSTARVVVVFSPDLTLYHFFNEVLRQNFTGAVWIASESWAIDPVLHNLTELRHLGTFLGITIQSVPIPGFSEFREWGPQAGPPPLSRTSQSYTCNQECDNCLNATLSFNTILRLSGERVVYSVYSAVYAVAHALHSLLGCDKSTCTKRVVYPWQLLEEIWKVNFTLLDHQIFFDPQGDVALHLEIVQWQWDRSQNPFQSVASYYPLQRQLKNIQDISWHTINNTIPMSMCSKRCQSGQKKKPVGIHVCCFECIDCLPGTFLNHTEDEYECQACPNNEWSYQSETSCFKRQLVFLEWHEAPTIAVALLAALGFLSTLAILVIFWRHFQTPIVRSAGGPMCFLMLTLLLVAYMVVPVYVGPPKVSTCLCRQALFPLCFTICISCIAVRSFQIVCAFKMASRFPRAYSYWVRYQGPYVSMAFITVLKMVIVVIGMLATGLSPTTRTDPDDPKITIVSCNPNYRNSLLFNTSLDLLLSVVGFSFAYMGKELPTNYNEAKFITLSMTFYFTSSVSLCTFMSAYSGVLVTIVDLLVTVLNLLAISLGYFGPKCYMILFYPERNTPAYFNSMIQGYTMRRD
# T1 sequence (Q7RTX0 21-852): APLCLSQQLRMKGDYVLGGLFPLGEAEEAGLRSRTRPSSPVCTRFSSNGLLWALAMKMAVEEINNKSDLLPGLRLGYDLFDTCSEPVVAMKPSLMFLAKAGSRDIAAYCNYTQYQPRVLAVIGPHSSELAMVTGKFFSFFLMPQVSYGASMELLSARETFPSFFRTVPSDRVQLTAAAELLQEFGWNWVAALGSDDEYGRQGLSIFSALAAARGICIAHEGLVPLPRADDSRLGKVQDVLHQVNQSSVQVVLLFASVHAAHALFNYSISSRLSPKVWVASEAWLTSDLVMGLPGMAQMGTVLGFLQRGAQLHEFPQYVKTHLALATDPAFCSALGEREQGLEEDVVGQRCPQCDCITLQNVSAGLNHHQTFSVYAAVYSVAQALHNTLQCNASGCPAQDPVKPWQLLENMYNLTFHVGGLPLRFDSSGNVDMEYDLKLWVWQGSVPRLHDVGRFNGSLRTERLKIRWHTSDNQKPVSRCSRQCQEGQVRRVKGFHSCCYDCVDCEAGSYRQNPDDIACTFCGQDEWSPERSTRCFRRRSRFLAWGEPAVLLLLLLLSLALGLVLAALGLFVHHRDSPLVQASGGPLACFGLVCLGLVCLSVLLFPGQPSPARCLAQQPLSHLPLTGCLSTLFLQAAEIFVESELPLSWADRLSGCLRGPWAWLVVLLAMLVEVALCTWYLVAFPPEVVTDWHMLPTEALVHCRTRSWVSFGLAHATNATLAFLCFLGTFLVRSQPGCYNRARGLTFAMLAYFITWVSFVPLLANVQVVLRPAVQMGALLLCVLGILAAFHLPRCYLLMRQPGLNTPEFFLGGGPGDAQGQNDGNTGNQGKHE
# Description: (§1) All examples use the human receptors.
# (§2) HEK293 cells stably expressing G alpha 16-gustducin 44 and transfected as described in example 2, 3 or 4 were used as host cells.
# (§3) To form a T1R2 vector construct, cDNA fragments containing the entire protein coding sequences for human T1R2 and T1R3 were isolated from a human fungiform cDNA library, fully sequenced and then subcloned into pcDNA3.1 (Invitrogen).
# T1R2 monomer [1] = target: T2, T1R2 monomer (Homo sapiens, UniProt Q8TE23); experiment: Fluo-4 calcium assay, HEK293T/G16gust44 cells transiently transfected with T1R2 monomer; format: cell-based
# T2 construct: expressed in transfected cells; host or cells: HEK293T cells stably expressing G16gust44
# T2 sequence (Q8TE23 20-839): T1 sequence (Q8TE23 20-839)
# Description: as §1, §2, §3
# T1R3 monomer = target: T3, T1R3 monomer (Homo sapiens, UniProt Q7RTX0); experiment: Fluo-4 calcium assay, HEK293T/G16gust44 cells transiently transfected with T1R3 monomer; format: cell-based; conditions: 50 μM perillartine, mean of six replicates
# T3 construct: expressed in transfected cells; host or cells: HEK293T cells stably expressing G16gust44
# T3 sequence (Q7RTX0 21-852): T1 sequence (Q7RTX0 21-852)
# Description: as §1, §2, §3
# [2] = system: cells expressing G16gust44 only; experiment: Calcium flux assay (FLIPR), non-transfected cells expressing G16gust44 only; format: cell-based; conditions: 50 μM perillartine
# Procedure: (§4) For results, see table below. The signal average of the experiment is given, as well as the standard deviation (STD) in RFU. Two clones were analysed. Non-transfected cells expressing G16gust44 only serve as a general negative control.
# [3] = system: mock transfected cells expressing only the G16gust44 chimeric G-protein; experiment: Fluo-4 calcium assay, mock transfected cells expressing only G16gust44 (negative control cells); format: cell-based, human; conditions: 50 μM perillartine, mean of six replicates
# Description: as §2
# T1R2 monomer [4] = target: T2, T1R2 monomer; experiment: Calcium flux assay (FLIPR), clonal cell lines stably expressing T1R2 and G16gust44; format: cell-based; conditions: 50 μM perillartine
# Procedure: as §1
# A human T1R2/pcDNA4-Zeocin construct was linearized by digesting 5 ug with Pvu II and then purified using the Wizard DNA Clean-Up System (Promega). The DNA was transfected using the Lipofectamine 2000 reagent into cells that already stably express the G16gust44 G-protein (formed as described in WO 2004/055048).
# as §4
# [5] = 50 μM perillartine, mean of six replicates
Structure (SMILES),calcium signal intensity (T1R2/T1R3 dimer),calcium signal compared with negative controls (mock transfected cells) (T1R2 monomer [1]),further results
C=C1C[C@@]23CC[C@H]4[C@@](C)(CCC[C@@]4(C)C(=O)O[C@@H]4O[C@H](CO)[C@@H](O)[C@H](O)[C@H]4O)[C@@H]2CC[C@]1(O[C@@H]1O[C@H](CO)[C@@H](O)[C@H](O)[C@H]1O[C@@H]1O[C@H](CO)[C@@H](O)[C@H](O)[C@H]1O)C3 [stevioside],strong signals comparable to the signal intensity of perillartine,not significantly above the signals observed for the negative controls,
C=C(C)[C@@H]1CC=C(/C=N/O)CC1 [perillartine],,,SIGNAL AVERAGE (net increase in fluorescence over baseline) (T1R3 monomer): 165.6 RFU; SIGNAL AVERAGE (net increase in fluorescence over baseline) (T1R2/T1R3 dimer; [5]): 1279.6 RFU; Signal average [2]: 368.71 RFU; SIGNAL AVERAGE (net increase in fluorescence over baseline) [3]: 353.5 RFU; Signal average (T1R2 monomer [4]; T1R2/G16gust44 CLONE 2): 4336.25 RFU; Signal average (T1R2 monomer [4]; T1R2/G16gust44 CLONE 4): 5288.47 RFU; perillartine-dependent signal relative to negative control cells expressing only G16gust44 (T1R2 monomer [4]; clonal cell lines stably expressing T1R2 monomer): at least 10 fold; SIGNAL AVERAGE (net increase in fluorescence over baseline) (T1R2 monomer [1]; [5]): 944.9 RFU
COC(=O)[C@H](Cc1ccccc1)NC(=O)[C@@H](N)CC(=O)O [aspartame] (H-Asp-Phe-OMe),strong signals comparable to the signal intensity of perillartine,not significantly above the signals observed for the negative controls,
OC[C@H]1O[C@H](O[C@]2(CCl)O[C@H](CCl)[C@@H](O)[C@@H]2O)[C@H](O)[C@@H](O)[C@H]1Cl [sucralose],strong signals comparable to the signal intensity of perillartine,not significantly above the signals observed for the negative controls,
N[C@H](Cc1c[nH]c2ccccc12)C(=O)O [D-tryptophan],strong signals comparable to the signal intensity of perillartine,not significantly above the signals observed for the negative controls,
